In the C3SDB collision cross section collection:
Where “and” joins values, the source holds several entries; their conditions need not be identical. Equal entries are not always repeated. Structures can show the parent of a compound that is named as a salt. Blank lines part the entries; values can stand above or below the molecule they belong to.

Experiments:
[1] = instrument: DT, single field, calibrated with Agilent tune mix (Agilent)
[2] = instrument: DT, single field, calibrated with ESI Low Concentration Tuning Mix (Agilent)
[3] = instrument: TW, calibrated with polyalanine and drug standards

collision cross section (N2) ([1]; [M+H]+): 125 Å²
collision cross section (N2) ([1]; [M-H]-): 122.49 Å²
SMILES: O=C(O)[C@H]1CCCN1 [D-Proline]

collision cross section (N2) ([1]; [M-H]-): 183.17 Å²
SMILES: CC(C)CCCC(C)CCCC(C)CCCC(C)CC(=O)O (configuration not stated) [Phytanic acid]

collision cross section (N2) ([1]; [M+H]+): 247.8 Å²
collision cross section (N2) ([1]; [M-H]-): 252.94 Å²
SMILES: CC(=O)CC(=O)SCCNC(=O)CCNC(=O)[C@H](O)C(C)(C)COP(=O)(O)OP(=O)(O)OC[C@H]1O[C@@H](n2cnc3c(N)ncnc32)[C@H](O)[C@@H]1OP(=O)(O)O [Acetoacetyl coenzyme A]

collision cross section (N2) ([1]; [M-H]-): 116.84 Å²
SMILES: O=C(O)[C@H](O)[C@@H](O)CO [L-Threonate]

collision cross section (N2) ([1]; [M+Na]+): 142.8 Å²
SMILES: C[C@@H](N)C(=O)N[C@H](C)C(=O)O [D-Ala-D-Ala]

collision cross section (N2) ([1]; [M+H]+): 209.7 Å²
collision cross section (N2) ([1]; [M+Na-2H]-): 185.23 Å²
SMILES: N[C@@H](Cc1cc(I)c(Oc2ccc(O)c(I)c2)c(I)c1)C(=O)O [Liothyronine]

collision cross section (N2) ([1]; [M+Na-2H]-): 129.65 Å²
SMILES: O=C(O)CCCC(=O)C(=O)O [2-Oxoadipic acid]

collision cross section (N2) ([1]; [M+H]+): 148.7 Å²
collision cross section (N2) ([1]; [M-H]-): 138.21 Å²
SMILES: N[C@@H](Cc1ccc(O)c(O)c1)C(=O)O [3,4-Dihydroxy-L-phenylalanine]

collision cross section (N2) ([1]; [M+Na]+): 133.7 Å²
SMILES: NC(=O)CC[C@H](N)C(=O)O [L-Glutamine]

collision cross section (N2) ([1]; [M+H]+): 129.7 Å²
collision cross section (N2) ([1]; [M-H]-): 124.3 Å²
SMILES: COc1cc(C=O)ccc1O [Vanillin]

collision cross section (N2) ([1]; [M-H]-): 197.93 Å²
SMILES: CCCCCCCCCCCCCCCCCCCCCCCC(=O)O [Tetracosanoic acid]

collision cross section (N2) ([1]; [M+H]+): 252.9 Å²
SMILES: CCCC(=O)SCCNC(=O)CCNC(=O)[C@H](O)C(C)(C)COP(=O)(O)OP(=O)(O)OC[C@H]1O[C@@H](n2cnc3c(N)ncnc32)[C@H](O)[C@@H]1OP(=O)(O)O [Butyryl-CoA]

collision cross section (N2) ([1]; [M+H]+): 238.6 Å²
collision cross section (N2) ([1]; [M-H]-): 232.51 Å²
SMILES: CC(C)(COP(=O)(O)OP(=O)(O)OC[C@H]1O[C@@H](n2cnc3c(N)ncnc32)[C@H](O)[C@@H]1O)[C@@H](O)C(=O)NCCC(=O)NCCS [Dephosphocoenzyme A]

collision cross section (N2) ([1]; [M+H]+): 132.1 Å²
SMILES: Cn1cc(C(N)=O)ccc1=O [N1-Methyl-2-pyridone-5-carboxamide]

collision cross section (N2) ([1]; [M-H]-): 129.18 Å²
SMILES: Cn1c(=O)[nH]c2[nH]c(=O)[nH]c2c1=O [1-Methyluric acid]

collision cross section (N2) ([1]; [M+H]+): 162.7 Å²
collision cross section (N2) ([1]; [M-H]-): 161.4 Å²
SMILES: CC(=O)Nc1ccn([C@@H]2O[C@H](CO)[C@@H](O)[C@H]2O)c(=O)n1 [N4-Acetylcytidine]

collision cross section (N2) ([1]; [M+Na]+): 165.6 Å²
collision cross section (N2) ([1]; [M-H]-): 153.52 Å²
SMILES: Cc1cn([C@@H]2O[C@H](CO)[C@@H](O)[C@H]2O)c(=O)[nH]c1=O [Ribothymidine]

collision cross section (N2) ([1]; [M+Na]+): 139.4 Å²
SMILES: O=C(O)[C@H](O)COP(=O)(O)O [3-Phospho-D-glycerate]

collision cross section (N2) ([1]; [M+H]+): 162.6 Å²
collision cross section (N2) ([1]; [M-H2O-H]-): 152.43 Å²
SMILES: N[C@@H](CCC(=O)N[C@@H](CCC(=O)O)C(=O)O)C(=O)O [gamma-L-Glutamyl-L-glutamic acid]

collision cross section (N2) ([1]; [M+H]+): 217.3 Å²
collision cross section (N2) ([1]; [M-H]-): 211.81 Å²
SMILES: CC1=C(C/C=C(\C)CCC[C@H](C)CCC[C@H](C)CCCC(C)C)C(=O)c2ccccc2C1=O [Phylloquinone]

collision cross section (N2) ([1]; [M+H]+): 129.7 Å²
SMILES: NC(N)=NCCCC(=O)O [4-Guanidinobutyric acid]

collision cross section (N2) ([1]; [M+H]+): 166.3 Å²
SMILES: Nc1ccn([C@@H]2O[C@H](COP(=O)(O)O)[C@@H](O)[C@H]2O)c(=O)n1 [Cytidine 5'-monophosphate]

collision cross section (N2) ([1]; [M+H]+): 216.2 Å²
collision cross section (N2) ([1]; [M+Na-2H]-): 194.19 Å²
SMILES: N[C@@H](Cc1cc(I)c(Oc2cc(I)c(O)c(I)c2)c(I)c1)C(=O)O [L-Thyroxine]

collision cross section (N2) ([1]; [M+H]+): 218.9 Å²
collision cross section (N2) ([1]; [M-H]-): 208.72 Å²
SMILES: Nc1nc(=O)c2ncn([C@@H]3O[C@H](COP(=O)(O)OP(=O)(O)O[C@H]4O[C@H](CO)[C@@H](O)[C@H](O)[C@H]4O)[C@@H](O)[C@H]3O)c2[nH]1 [GDP-glucose]

collision cross section (N2) ([1]; [M+Na-2H]-): 168.98 Å²
collision cross section (N2) ([1]; [M+Na]+): 177.7 Å²
SMILES: OC[C@H]1O[C@H](OC2[C@@H](O)[C@H](O)C(O)[C@H](O)[C@@H]2O)[C@H](O)[C@@H](O)[C@H]1O (some centres not stated) [Galactinol]

collision cross section (N2) ([1]; [M+H]+): 133.1 Å²
SMILES: CS(=O)CCC(N)C(=O)O (racemic) [DL-Methionine sulfoxide]

collision cross section (N2) ([1]; [M+Na]+): 198.3 Å²
collision cross section (N2) ([1]; [M-H2O-H]-): 181.94 Å²
SMILES: CCCCC[C@H](O)/C=C/[C@H]1[C@H](O)CC(=O)[C@@H]1CCCCCCC(=O)O [Prostaglandin E1]

collision cross section (N2) ([1]; [M+Na]+): 139.1 Å²
SMILES: NC(=O)N[C@@H](CC(=O)O)C(=O)O [N-carbamoyl-L-aspartate]

collision cross section (N2) ([1]; [M+Na]+): 164 Å²
collision cross section (N2) ([1]; [M-H]-): 152.83 Å²
SMILES: CC(=O)N[C@H]1C(O)O[C@H](COP(=O)(O)O)[C@@H](O)[C@@H]1O (stereo partly drawn) [N-Acetyl-D-Glucosamine 6-Phosphate]

collision cross section (N2) ([1]; [M+H-H2O]+): 179.6 Å²
collision cross section (N2) ([1]; [M-H]-): 187.18 Å²
SMILES: C[C@]12CC[C@@H](O)C[C@H]1CC[C@@H]1[C@@H]2[C@@H](O)C[C@]2(C)[C@@H](C(=O)CO)CC[C@@H]12 [3alpha,11beta,21-Trihydroxy-5beta-pregnan-20-one]

collision cross section (N2) ([1]; [M+H]+): 257.2 Å²
collision cross section (N2) ([1]; [M-H]-): 271.13 Å²
SMILES: CC1=C(CCC(=O)O)c2cc3nc(cc4[nH]c(cc5[nH]c(cc1n2)c(C)c5CCC(=O)O)c(CCC(=O)O)c4C)C(CCC(=O)O)=C3C [Coproporphyrin III]

collision cross section (N2) ([1]; [M+Na]+): 168.6 Å²
SMILES: CC(=O)N[C@H]1[C@H]([C@H](O)[C@H](O)CO)OC(O)(C(=O)O)C[C@@H]1O (some centres not stated) [N-Acetylneuraminic acid]

collision cross section (N2) ([1]; [M-H]-): 237.01 Å²
SMILES: CC(C)CCC[C@@H](C)[C@H]1CC[C@H]2[C@@H]3CC=C4C[C@@H](OS(=O)(=O)O)CC[C@]4(C)[C@H]3CC[C@]12C [Cholesteryl sulfate]

collision cross section (N2) ([1]; [M+Na]+): 158.3 Å²
collision cross section (N2) ([1]; [M-H]-): 143.99 Å²
SMILES: O=P(O)(O)OC1O[C@H](CO)[C@@H](O)[C@H](O)[C@@H]1O (stereo partly drawn) [D-Mannose 1-phosphate]

collision cross section (N2) ([1]; [M-H]-): 128.86 Å²
SMILES: Cn1c(=O)[nH]c(=O)c2[nH]c(=O)[nH]c21 [3-Methyluric acid]

collision cross section (N2) ([1]; [M+H]+): 162.4 Å²
collision cross section (N2) ([1]; [M-H]-): 160.3 Å²
SMILES: Cc1ncc(C[n+]2csc(CCO)c2C)c(N)n1 [Thiamine]

collision cross section (N2) ([2]; [M+H]+): 153.2 Å²
collision cross section (N2) ([2]; [M+K]+): 158.3 Å²
collision cross section (N2) ([3]; [M+H]+): 152 Å²
SMILES: COc1ccc2[nH]cc(CCNC(C)=O)c2c1 [MELATONIN]

collision cross section (N2) ([2]; [M+H]+): 124.9 Å²
collision cross section (N2) ([2]; [M+Na]+): 137 Å² and 137.4 Å²
collision cross section (N2) ([2]; [M-H]-): 119.6 Å² and 119.8 Å²
collision cross section (N2) ([3]; [M+H]+): 122.4 Å²
SMILES: Nc1ncnc2nc[nH]c12 [ADENINE]

collision cross section (N2) ([2]; [M+H]+): 151 Å²
collision cross section (N2) ([2]; [M+Na]+): 159.7 Å²
collision cross section (N2) ([2]; [M-H]-): 149.8 Å²
collision cross section (N2) ([3]; [M+H]+): 151.1 Å²
SMILES: Nc1ccn([C@@H]2O[C@H](CO)[C@@H](O)[C@H]2O)c(=O)n1 [CYTIDINE]

collision cross section (N2) ([2]; [M+H]+): 138.7 Å²
collision cross section (N2) ([2]; [M+Na]+): 149.5 Å²
collision cross section (N2) ([3]; [M+H]+): 132.4 Å²
SMILES: Cn1c(=O)[nH]c2ncn(C)c2c1=O [PARAXANTHINE]

collision cross section (N2) ([2]; [M+H]+): 180.4 Å²
collision cross section (N2) ([2]; [M+K]+): 180 Å²
collision cross section (N2) ([2]; [M+Na]+): 177.3 Å²
collision cross section (N2) ([2]; [M-H]-): 178.1 Å²
collision cross section (N2) ([3]; [M+Na]+): 174.8 Å²
SMILES: OC[C@H]1O[C@H](OC[C@H]2OC(O)[C@H](O)[C@@H](O)[C@@H]2O)[C@H](O)[C@@H](O)[C@H]1O (some centres not stated) [MELIBIOSE]

collision cross section (N2) ([2]; [M+H]+): 149.7 Å²
collision cross section (N2) ([2]; [M+K]+): 160.1 Å²
collision cross section (N2) ([2]; [M+Na-2H]-): 152.9 Å²
collision cross section (N2) ([2]; [M+Na]+): 159.9 Å²
collision cross section (N2) ([3]; [M+H]+): 148 Å²
SMILES: O=C(O)CCCC[C@@H]1SC[C@@H]2NC(=O)N[C@@H]21 [BIOTIN]

collision cross section (N2) ([2]; [M+Na]+): 141.1 Å²
collision cross section (N2) ([3]; [M+Na]+): 139.6 Å²
SMILES: OC[C@@H](O)[C@@H](O)[C@H](O)[C@H](O)CO [MANNITOL]

collision cross section (N2) ([2]; [M-H]-): 132 Å²
collision cross section (N2) ([3]; [M+H]+): 133.5 Å²
SMILES: Cn1c(=O)c2[nH]cnc2n(C)c1=O [THEOPHYLLINE]

collision cross section (N2) ([2]; [M+H]+): 209.1 Å²
collision cross section (N2) ([2]; [M+Na]+): 194.3 Å²
collision cross section (N2) ([3]; [M+H]+): 205.3 Å²
SMILES: N[C@@H](Cc1cc(I)c(Oc2ccc(O)c(I)c2)c(I)c1)C(=O)O [LIOTHYRONINE]

collision cross section (N2) ([2]; [M+H]+): 149.4 Å²
collision cross section (N2) ([2]; [M+Na-2H]-): 147.3 Å²
collision cross section (N2) ([2]; [M+Na]+): 151.2 Å²
collision cross section (N2) ([2]; [M-H]-): 143 Å²
collision cross section (N2) ([3]; [M+H]+): 148.1 Å²
SMILES: N[C@@H](CSSC[C@H](N)C(=O)O)C(=O)O [CYSTINE]

collision cross section (N2) ([2]; [M+H2O-H]-): 132.6 Å²
collision cross section (N2) ([2]; [M+H20-H]-): 132.5 Å²
collision cross section (N2) ([2]; [M+Na]+): 144.7 Å²
collision cross section (N2) ([3]; [M+H]+): 127.6 Å²
SMILES: O=C1O[C@H](CO)[C@@H](O)[C@H](O)[C@H]1O [GLUCONOLACTONE]

collision cross section (N2) ([2]; [M+H]+): 127.2 Å²
collision cross section (N2) ([2]; [M+Na-2H]-): 134.4 Å²
collision cross section (N2) ([2]; [M+Na]+): 134.4 Å²
collision cross section (N2) ([2]; [M-H]-): 116.9 Å²
collision cross section (N2) ([3]; [M+H]+): 123.1 Å²
SMILES: O=c1nc[nH]c2nc[nH]c12 [HYPOXANTHINE]

collision cross section (N2) ([2]; [M+]+): 129.5 Å²
collision cross section (N2) ([3]; [M]+): 130.1 Å²
SMILES: CC(=O)OCC[N+](C)(C)C [ACETYLCHOLINE]
